Tests used:
primate [1] = details: Sub-acute repeat dose toxicity, Oral, Gavage/Intubation, dose end: 14 day, group: systemic
dog [2] = details: Subchronic oral toxicity in nonrodent, beagle, Gavage/Intubation, dose end: 91 day, group: systemic, systemic / pathology microscopic / brain / necrosis
rat [3] = details: Subchronic oral toxicity in rodents, Gavage/Intubation, dose end: 91 day, group: systemic
dog [4] = details: Sub-acute repeat dose toxicity, beagle, Oral, Gavage/Intubation, dose end: 14 day, group: systemic
rat [5] = details: Prenatal developmental toxicity study, Oral, Gavage/Intubation, dose end: 18 GD
rat [6] = details: Chronic toxicity, Oral, Gavage/Intubation, dose end: 182 day, group: systemic
dog [7] = details: Sub-acute repeat dose toxicity; beagle; Oral; Gavage/Intubation; dose end: 14 day; group: systemic; systemic / clinical chemistry / [other] / [other] + systemic / clinical chemistry / cytochrome p450, nos / cytochrome p450, nos + systemic…
primate [8] = details: Subchronic oral toxicity in nonrodent, Gavage/Intubation, dose end: 91 day, group: systemic, systemic / pathology microscopic / intestine small / erosion
rat [9] = details: Sub-acute repeat dose toxicity; wistar; Oral; Gavage/Intubation; dose end: 14 day; group: systemic; systemic / hematology / [other] / [other]
dog [10] = details: Subchronic oral toxicity in nonrodent, beagle, Gavage/Intubation, dose end: 91 day, group: systemic, systemic / in life observation / clinical signs / emesis + systemic / organ weight / liver / absolute + systemic / pathology microscopic / …
dog [11] = details: Subchronic oral toxicity in nonrodent, beagle, Gavage/Intubation, dose end: 91 day, group: systemic
rat [12] = details: Peri- and post-natal toxicity study (Segment III), Oral, Gavage/Intubation, dose end: 1 generation
mouse = details: Subchronic oral toxicity in rodents, other, Feed, dose end: 90 day, group: systemic, systemic / clinical chemistry / cholesterol / cholesterol + systemic / clinical chemistry / triglycerides / triglycerides + systemic / organ…
rat [13] = details: Peri- and post-natal toxicity study (Segment III), sprague dawley, Oral, Gavage/Intubation, dose end: 54 PND
rabbit = details: Prenatal developmental toxicity study; himalayan; Oral; Gavage/Intubation; dose end: 28 GD; group: maternal; systemic / in life observation / food consumption / food consumption + systemic / organ weight / adrenal gland / absolute + systemic / organ…
dog [14] = details: Subchronic oral toxicity in nonrodent, beagle, Feed, dose end: 6 month, group: systemic
rat [15] = details: Multigenerational reproductive toxicity study, sprague dawley, Oral, Feed, dose end: 2 generation
[16] = systemic / hematology / erythrocyte (rbc) count differential / erythrocyte (rbc) + systemic / hematology / hematocrit (hct) / hematocrit (…
[17] = systemic / in life observation / body weight / body weight + systemic / in life observation / clinical signs / [other] + systemic / in life …
[18] = systemic / clinical chemistry / [other] / [other] + systemic / clinical chemistry / cytochrome p450, nos / cytochrome p450, nos + systemic…
[19] = systemic / in life observation / food consumption / food consumption + systemic / pathology microscopic / kidney / dilatation + systemic / …
[20] = systemic / clinical chemistry / [other] / [other] + systemic / clinical chemistry / creatinine / creatinine + systemic / clinical chemistry…
[21] = systemic / in life observation / clinical signs / abnormal feces + systemic / in life observation / food consumption / food consumption + …
[22] = group: developmental, developmental / developmental malformation / bone / delayed ossification + developmental / developmental malformation / bone / [other] + …
[23] = group: maternal, systemic / in life observation / body weight / body weight gain + systemic / in life observation / clinical signs / abnormal feces + …
[24] = systemic / clinical chemistry / albumin / albumin + systemic / clinical chemistry / calcium / calcium + systemic / clinical chemistry / …
[25] = systemic / organ weight / kidney / absolute + systemic / pathology microscopic / intestine small / erosion
[26] = systemic / clinical chemistry / alkaline phosphatase (alp/alk) / alkaline phosphatase (alp/alk) + systemic / clinical chemistry / protein / …
[27] = systemic / pathology microscopic / liver / hypertrophy + systemic / pathology microscopic / brain / infiltration cellular + systemic / …
[28] = group: maternal, reproductive / offspring survival early / dead fetuses / dead fetuses + reproductive / reproductive performance / dystocia / dystocia + …
[29] = group: maternal, reproductive / offspring survival early / litter size / litter size
[30] = group: parental, systemic / in life observation / clinical signs / body cold to touch + systemic / in life observation / clinical signs / cannibalism + …
[31] = group: parental, systemic / in life observation / clinical signs / body cold to touch + systemic / in life observation / clinical signs / dehydration + …
[32] = group: developmental, developmental / developmental landmark / preputial separation / preputial separation
[33] = group: parental, systemic / organ weight / [other] / absolute + systemic / organ weight / adrenal gland / absolute + systemic / organ weight / prostate / …
[34] = group: parental, systemic / pathology gross / kidney / dilatation
[35] = systemic / organ weight / adrenal gland / absolute + systemic / organ weight / adrenal gland / relative to body weight + systemic / clinical…
[36] = group: offspring, developmental / developmental landmark / nipple development / nipple development + developmental / developmental landmark / preputial …
[37] = group: parental, systemic / organ weight / epididymis / absolute + systemic / organ weight / epididymis / relative to body weight + systemic / organ weight…
[38] = group: reproductive, reproductive / reproductive performance / fertility / fertility

In the case of `CC(C)(C)c1cc(/C=C2\SC(N)=NC2=O)cc(C(C)(C)C)c1O.CS(=O)(=O)O` [Darbufelone mesylate], the LOAEL (primate [1]; [16]) is reported as > 1000 mg/kg/day, the NOAEL (primate [1]; [16]) is reported as ≥ 1000 mg/kg/day and the LEL (primate [1]; [17]) is reported as 100 mg/kg/day. For the same compound, the NEL (primate [1]; [17]) was < 100 mg/kg/day, the LEL (dog [2]) was 2 mg/kg/day and the NEL (dog [2]) was < 2 mg/kg/day. The LOAEL (rat [3]; [18]) was > 75 mg/kg/day, the NOAEL (rat [3]; [18]) was ≥ 75 mg/kg/day and the LEL (rat [3]; [19]) was 10 mg/kg/day. For the same compound, the NEL (rat [3]; [19]) was < 10 mg/kg/day, the LOAEL (dog [4]; [20]) was > 200 mg/kg/day and the NOAEL (dog [4]; [20]) was ≥ 200 mg/kg/day. For the same compound, the LEL (dog [4]; [21]) was 10 mg/kg/day, the NEL (dog [4]; [21]) was < 10 mg/kg/day and the LOAEL (rat [5]; [22]) was > 75 mg/kg/day. For the same compound, the NOAEL (rat [5]; [22]) was ≥ 75 mg/kg/day, the LOAEL (rat [5]; [23]) was > 75 mg/kg/day and the NOAEL (rat [5]; [23]) was ≥ 75 mg/kg/day. The LOAEL (rat [6]; [24]) was > 75 mg/kg/day, the NOAEL (rat [6]; [24]) was ≥ 75 mg/kg/day and the LEL (rat [6]; [25]) was 5 mg/kg/day. The NEL (rat [6]; [25]) was < 5 mg/kg/day, the LEL (dog [7]) was 2 mg/kg/day and the LOAEL (dog [7]) was > 5 mg/kg/day. For the same compound, the NEL (dog [7]) was < 2 mg/kg/day, the NOAEL (dog [7]) was ≥ 5 mg/kg/day and the LEL (primate [8]) was 10 mg/kg/day. For the same compound, the LOAEL (primate [8]) was > 50 mg/kg/day, the NEL (primate [8]) was 5 mg/kg/day and the NOAEL (primate [8]) was ≥ 50 mg/kg/day. For the same compound, the LEL (rat [9]) was 1 mg/kg/day, the LOAEL (rat [9]) was > 75 mg/kg/day and the NEL (rat [9]) was < 1 mg/kg/day. The NOAEL (rat [9]) was ≥ 75 mg/kg/day, the LEL (dog [10]) was 2 mg/kg/day and the LOAEL (dog [10]) was > 10 mg/kg/day. The NEL (dog [10]) was < 2 mg/kg/day, the NOAEL (dog [10]) was ≥ 10 mg/kg/day and the LOAEL (dog [11]; [26]) was > 10 mg/kg/day. The NOAEL (dog [11]; [26]) was ≥ 10 mg/kg/day, the LEL (dog [11]; [27]) was 2 mg/kg/day and the NEL (dog [11]; [27]) was < 2 mg/kg/day. The LEL (rat [12]; [28]) was 1 mg/kg/day, the NEL (rat [12]; [28]) was < 1 mg/kg/day and the LOAEL (rat [12]; [29]) was > 2 mg/kg/day. The NOAEL (rat [12]; [29]) was ≥ 2 mg/kg/day, the LEL (rat [12]; [30]) was 1 mg/kg/day and the NEL (rat [12]; [30]) was < 1 mg/kg/day. The LOAEL (rat [12]; [31]) was > 2 mg/kg/day and the NOAEL (rat [12]; [31]) was ≥ 2 mg/kg/day.

Work on `C=CC1(C)OC(=O)N(c2cc(Cl)cc(Cl)c2)C1=O` (configuration not stated) [Vinclozolin] yielded an LEL (mouse) of 230 mg/kg/day, an LOAEL (mouse) of 230 mg/kg/day and an NEL (mouse) of 20 mg/kg/day. For the same compound, the NOAEL (mouse) was 20 mg/kg/day, the LEL (rat [13]; [32]) was 10 mg/kg/day and the LOAEL (rat [13]; [32]) was > 100 mg/kg/day. For the same compound, the NEL (rat [13]; [32]) was < 10 mg/kg/day, the NOAEL (rat [13]; [32]) was ≥ 100 mg/kg/day and the LOAEL (rat [13]; [33]) was > 100 mg/kg/day. For the same compound, the NOAEL (rat [13]; [33]) was ≥ 100 mg/kg/day, the LEL (rat [13]; [34]) was 10 mg/kg/day and the NEL (rat [13]; [34]) was < 10 mg/kg/day. For the same compound, the LEL (rabbit) was 200 mg/kg/day, the LOAEL (rabbit) was 200 mg/kg/day and the NEL (rabbit) was 50 mg/kg/day. For the same compound, the NOAEL (rabbit) was 50 mg/kg/day, the LOAEL (dog [14]; systemic / organ weight / adrenal gland / absolute + systemic / organ weight / adrenal gland / relative to body weight) was 7.5 mg/kg/day and the NEL (dog [14]; [35]) was 2.5 mg/kg/day. It also gave an NOAEL (dog [14]; [35]) of 2.5 mg/kg/day, an LEL (dog [14]; systemic / organ weight / adrenal gland / absolute + systemic / organ weight / adrenal gland / relative to body weight + systemic / organ …) of 7.5 mg/kg/day and an LEL (rat [15]; [36]) of 14.8 mg/kg/day. It also gave an LOAEL (rat [15]; [36]) of 14.8 mg/kg/day, an NEL (rat [15]; [36]) of 3 mg/kg/day and an NOAEL (rat [15]; [36]) of 3 mg/kg/day. For the same compound, the LOAEL (rat [15]; [37]) was 14.8 mg/kg/day, the NOAEL (rat [15]; [37]) was 3 mg/kg/day and the LEL (rat [15]; group: parental, systemic / pathology microscopic / adrenal gland / [other] + systemic / pathology microscopic / liver / hypertrophy) was 11.5 mg/kg/day. The NEL (rat [15]; group: parental, systemic / pathology microscopic / adrenal gland / [other] + systemic / pathology microscopic / liver / hypertrophy + systemic / clinical …) was 2.34 mg/kg/day, the LEL (rat [15]; [38]) was 74.7 mg/kg/day and the LOAEL (rat [15]; [38]) was > 74.7 mg/kg/day. For the same compound, the NEL (rat [15]; [38]) was 14.8 mg/kg/day and the NOAEL (rat [15]; [38]) was ≥ 74.7 mg/kg/day.

Source: EPA's ToxRefDB 2
